In US8207144B2, “Sodium salt of disaccharide compound, production method and use of same” (Eisai R & D Management Co., Ltd., priority 2006, dated 2012):

Test: Storage stability test (formation of impurities A, B and C by HPLC)
Type: physicochemical
Details: HPLC area percent
Experimental: Consequently, formation rates (converted to monthly rates) were calculated for each of the three types of decomposition products (impurities A, B and C) using the area percent.

[1] = storage at 25° C. in screw-cap glass bottle, day 0
[2] = storage at 25° C., day 1.0, listed as 3.93 Na Salt
[3] = storage at 25° C., day 1.9, listed as 3.93 Na Salt
[4] = storage at 25° C., day 4.5, listed as 3.93 Na Salt
[5] = storage at 25° C., day 1.0, listed as 3.67 Na Salt
[6] = storage at 25° C., day 1.9, listed as 3.67 Na Salt
[7] = storage at 25° C., day 4.5, listed as 3.67 Na Salt

CCCCCC/C=C\CCCCCCCCCC(=O)N[C@H]1[C@H](OC[C@H]2O[C@H](OP(=O)([O-])[O-])[C@H](NC(=O)CC(=O)CCCCCCCCCCC)[C@@H](OCCCCCCCCCC)[C@@H]2O)O[C@H](COC)[C@@H](OP(=O)([O-])[O-])[C@@H]1OCC[C@@H](CCCCCCC)OC.[Na+].[Na+].[Na+].[Na+] [Example 4]
Impurity A [1]: 0.00% | Impurity C (storage at 25° C., day 0): 0.00% | Impurity B (storage at 25° C., day 0, listed as 3.93 Na Salt): 0.14% | Impurity C (storage at 25° C., day 1.0): 0.00% | Impurity A [2]: 0.03% | Impurity B [2]: 0.26% | Impurity C (storage at 25° C., day 1.9): 0.00% | Impurity A [3]: 0.04% | Impurity B [3]: 0.29% | Impurity C (storage at 25° C., day 4.5): 0.01% | Impurity A [4]: 0.06% | Impurity B [4]: 0.38% | Impurity C (storage at 25° C., day 8.8): 0.01% | Impurity C (storage at 25° C., day 29.5, listed as 3.93 Na Salt): 0.06%

CCCCCC/C=C\CCCCCCCCCC(=O)N[C@H]1[C@H](OC[C@H]2O[C@H](OP(=O)([O-])[O-])[C@H](NC(=O)CC(=O)CCCCCCCCCCC)[C@@H](OCCCCCCCCCC)[C@@H]2O)O[C@H](COC)[C@@H](OP(=O)([O-])[O-])[C@@H]1OCC[C@@H](CCCCCCC)OC.[Na+].[Na+].[Na+].[Na+] [Example 3]
Impurity A [1]: 0.00% | Impurity C (storage at 25° C., day 0): 0.00% | Impurity B (storage at 25° C., day 0, listed as 3.67 Na Salt): 0.08% | Impurity C (storage at 25° C., day 1.0): 0.00% | Impurity A [5]: 0.00% | Impurity B [5]: 0.12% | Impurity C (storage at 25° C., day 1.9): 0.00% | Impurity A [6]: 0.01% | Impurity B [6]: 0.09% | Impurity C (storage at 25° C., day 4.5): 0.01% | Impurity A [7]: 0.01% | Impurity B [7]: 0.13% | Impurity C (storage at 25° C., day 8.8): 0.01% | Impurity C (storage at 25° C., day 29.5, listed as 3.67 Na Salt): 0.07%

CCCCCC/C=C\CCCCCCCCCC(=O)N[C@H]1[C@H](OC[C@H]2O[C@H](OP(=O)(O)O)[C@H](NC(=O)CC(=O)CCCCCCCCCCC)[C@@H](OCCCCCCCCCC)[C@@H]2O)O[C@H](COC)[C@@H](OP(=O)(O)O)[C@@H]1OCC[C@@H](CCCCCCC)OC [Example 2]
Impurity A [1]: 0.00% | Impurity B (storage at 25° C., day 0): 0.00% | Impurity C (storage at 25° C., day 0): 0.00% | Impurity A (storage at 25° C., day 18): 0.00% | Impurity B (storage at 25° C., day 18): 0.00% | Impurity C (storage at 25° C., day 18): 0.17%

CCCCCC/C=C\CCCCCCCCCC(=O)NC1C(OCC2OC(OP(=O)([O-])[O-])C(NC(=O)CC(=O)CCCCCCCCCCC)C(OCCCCCCCCCC)C2O)OC(COC)C(OP(=O)([O-])[O-])C1OCCC(CCCCCCC)OC.[Na+].[Na+].[Na+].[Na+] (stereo not drawn) [Comparative Example 1, reference compound]
Impurity A [1]: 0.00% | Impurity B (storage at 25° C., day 0): 0.18% | Impurity C (storage at 25° C., day 0): 0.00% | Impurity A (storage at 25° C., day 1.0): 0.06% | Impurity B (storage at 25° C., day 1.0): 0.36% | Impurity C (storage at 25° C., day 1.0): 0.00% | Impurity A (storage at 25° C., day 1.9): 0.08% | Impurity B (storage at 25° C., day 1.9): 0.48% | Impurity C (storage at 25° C., day 1.9): 0.00% | Impurity A (storage at 25° C., day 4.5): 0.12% | Impurity B (storage at 25° C., day 4.5): 0.67% | Impurity C (storage at 25° C., day 4.5): 0.00% | Impurity C (storage at 25° C., day 8.8): 0.00% | Impurity C (storage at 25° C., day 29.5): 0.03%
